Assay results reported in paper PMC11286609, “In vitro and in vivo analyses of eFAP: a novel FAP-targeting small molecule for radionuclide theranostics and other oncological interventions” (EJNMMI Radiopharmacy and Chemistry, 2024).

Experiments:
[1] = biological target: T1, huFAP (HT1080-huFAP cells) (Homo sapiens, UniProt Q12884); assay: [^111In]In-FAPI-46 displacement assay on FAP-expressing cells; assay type: binding; details: 10^-9 M [^111In]In-FAPI-46, 45 min, n = 3, picture: nM ± 95% CI
T1 construct: expressed in transfected cells; host or cells: HT1080 (human sarcoma), stably transduced; provided by Prof; Dr. Uwe Haberkorn, University of Heidelberg
T1 sequence (Q12884 1-760): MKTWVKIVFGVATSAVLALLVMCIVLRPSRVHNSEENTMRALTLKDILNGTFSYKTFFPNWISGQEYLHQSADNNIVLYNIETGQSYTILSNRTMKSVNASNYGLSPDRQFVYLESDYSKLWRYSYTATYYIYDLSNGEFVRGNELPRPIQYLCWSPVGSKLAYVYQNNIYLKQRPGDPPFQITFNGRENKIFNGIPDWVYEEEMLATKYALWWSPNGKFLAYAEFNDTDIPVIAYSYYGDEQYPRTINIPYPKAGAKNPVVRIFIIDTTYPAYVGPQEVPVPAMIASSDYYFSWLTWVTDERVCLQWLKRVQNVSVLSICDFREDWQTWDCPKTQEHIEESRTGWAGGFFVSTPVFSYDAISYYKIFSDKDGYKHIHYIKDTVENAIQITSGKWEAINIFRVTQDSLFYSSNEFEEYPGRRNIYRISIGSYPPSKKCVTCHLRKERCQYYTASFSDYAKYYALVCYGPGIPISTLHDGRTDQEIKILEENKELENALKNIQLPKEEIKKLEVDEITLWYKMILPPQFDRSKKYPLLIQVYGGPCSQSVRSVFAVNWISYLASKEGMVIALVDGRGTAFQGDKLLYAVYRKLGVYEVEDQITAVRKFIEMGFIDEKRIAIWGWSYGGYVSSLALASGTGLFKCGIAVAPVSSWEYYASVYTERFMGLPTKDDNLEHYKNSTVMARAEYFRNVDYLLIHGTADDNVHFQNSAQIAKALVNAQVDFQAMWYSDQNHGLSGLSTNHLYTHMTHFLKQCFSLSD
Protocol: Cell experiments were performed with the human sarcoma HT1080 cell line, stably transduced with human FAP (HT1080-huFAP) which were kindly provided by Prof. Dr. Uwe Haberkorn from the University of Heidelberg. The wild type HT1080 (ATTC), hereafter HT080-WT, was used as a negative control. Additionally, the pancreatic stellate cells PS-1, obtained from Queen Mary University, were used as an endogenously FAP expressing cell line. HT1080-huFAP and HT1080-WT cells were cultured in DMEM Glutamax© (Gibco; Breda, The Netherlands) and the PS-1 cells were cultured in RPMI (Gibco). Both media were supplemented with 10% FBS (Gibco), 100 UI/mL penicillin, and 100 µg/mL streptomycin (Merck Life Science NV; Amsterdam, The Netherlands). All cell lines were regularly passaged at 80% confluence and cultured at 37 °C, 5% CO2.
In vitro displacement studies of eFAP-6 and eFAP-7, as well as specificity and uptake assays, were performed using HT0180-huFAP cells. One day prior to the assay 100,000 cells were seeded in a 12-well plate in triplicate. […] For the uptake assay, the cells were incubated with 1 nM [^111In]In-eFAP-6 or [^111In]In-FAPI-46 for different time points (5–120 min) in the presence and absence of 1 mM UAMC-1110 to determine the specificity of^111 radiotracer binding. In both assays, the cells were washed twice with PBS after incubation and were subsequently lysed using 1 M NaOH for 20 min. The cell lysates were collected and radioactivity was measured in a γ-counter (PerkinElmer), simultaneously with 100 µL of the radioactive incubation medium as a standard. […] Uptake was expressed as percentage added activity per 200,000 cells (% AA/200,000 cells), and specific uptake was corrected by subtracting the uptake measured in the block wells.
All statistical analyses were performed with GraphPad Prism version 9.0 (San Diego, California USA). All IC50 values were determined using a non-linear regression Log(inhibitor) vs. response analysis with variable slope (four parameters). […]

[2] = biological target: T2, dipeptidyl peptidase IV (DPP4) (Homo sapiens, UniProt P27487); assay: Enzymatic inhibition assay, DPP4; assay type: biochemical; details: recombinant DPP4, n = 3; picture: nM ± 95% CI
T2 construct: purchased Abcam
T2 sequence (P27487 whole entry, species assumed): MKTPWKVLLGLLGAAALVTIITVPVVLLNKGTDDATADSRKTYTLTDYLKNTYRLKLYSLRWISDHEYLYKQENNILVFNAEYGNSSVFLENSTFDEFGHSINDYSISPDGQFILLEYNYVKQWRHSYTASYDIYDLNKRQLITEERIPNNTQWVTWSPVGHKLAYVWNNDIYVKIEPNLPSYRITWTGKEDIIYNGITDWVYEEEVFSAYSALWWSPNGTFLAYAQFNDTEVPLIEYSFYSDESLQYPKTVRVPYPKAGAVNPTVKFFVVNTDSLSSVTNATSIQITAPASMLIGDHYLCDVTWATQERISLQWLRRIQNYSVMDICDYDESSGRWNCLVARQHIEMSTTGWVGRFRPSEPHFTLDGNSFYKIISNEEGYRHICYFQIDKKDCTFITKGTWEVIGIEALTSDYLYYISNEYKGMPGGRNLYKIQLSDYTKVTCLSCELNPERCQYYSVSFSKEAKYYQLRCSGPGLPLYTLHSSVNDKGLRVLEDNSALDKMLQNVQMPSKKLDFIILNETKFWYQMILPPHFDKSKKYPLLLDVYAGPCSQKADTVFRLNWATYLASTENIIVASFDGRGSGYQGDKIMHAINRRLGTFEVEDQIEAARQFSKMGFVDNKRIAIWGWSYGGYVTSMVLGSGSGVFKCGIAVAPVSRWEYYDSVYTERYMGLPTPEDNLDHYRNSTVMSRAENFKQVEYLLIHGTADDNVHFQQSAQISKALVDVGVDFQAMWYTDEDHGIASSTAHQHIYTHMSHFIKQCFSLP
Protocol: All experiments were performed in triplicate and repeated at least three times.

[3] = LogD7.4 shake-flask method (n-octanol/PBS); assay type: physicochemical; details: n-octanol/PBS (1:1 v/v); n-octanol/PBS pH 7.4, shake-flask
Protocol: The distribution coefficients (LogD7.4) were determined using a shake-flask method, in which 2 µL (~ 0.5 MBq) of [^111In]In-eFAP-6 or 10 µL of eFAP-7 (10^− 4 M) was added to an Eppendorf tube containing 1 mL of PBS (0.01 M, pH 7.4) and n-octanol (v/v, 1:1). After vigorous vortexing, the solution was centrifuged at 2500× g for 15 min for phase separation. For radiolabeled eFAP-6, samples (3 × 10 µL) of the octanol and aqueous phases were taken out and measured in a 1480 Wizard automatic γ-counter (PerkinElmer; Groningen, The Netherlands). LogD7.4 values were calculated by using the following equation: LogD7.4 = log [(counts in octanol phase)/(counts in aqueous phase)]. For eFAP-7, samples (50 µL) of the octanol and aqueous phases were taken out and measured by LC-MS. LogD7.4 values were calculated by using the following equation: LogD7.4 = log [(area in octanol phase)/(area in aqueous phase)].

IC50 [1] [nM]	IC50 [2] [nM]	logD [3]	Structure (SMILES)
1.42 ± 0.29			CN(CCCN1CCN(C(=O)CN2CCN(CC(=O)O)CCN(CC(=O)O)CCN(CC(=O)O)CC2)CC1)c1ccc2nccc(C(=O)NCC(=O)N3CC(F)(F)C[C@H]3C#N)c2c1 [FAPI-46, reference compound]
0.62 ± 0.26	58600 ± 11400		N#C[C@@H]1CC(F)(F)CN1C(=O)CNC(=O)c1ccnc2c(OCCCNC(=O)CN3CCN(CC(=O)O)CCN(CC(=O)O)CCN(CC(=O)O)CC3)cccc12 [eFAP-6, (S)-2,2',2''-(10-(2-((3-((4-((2-(2-cyano-4,4-difluoropyrrolidin-1-yl)-2-oxoethyl)carbamoyl)quinolin-8-yl)oxy)propyl)amino)-2-oxoethyl)-1,4,7,10-tetraazacyclododecane-1,4,7-triyl)triacetic acid]
1 ± 0.36	612000 ± 42700	-0.94 ± 0.26	CN1/C(=C/C=C/C=C/C2=[N+](CCCCCC(=O)NCCCOc3cccc4c(C(=O)NCC(=O)N5CC(F)(F)C[C@H]5C#N)ccnc34)c3ccc(S(=O)(=O)[O-])cc3C2(C)C)C(C)(C)c2cc(S(=O)(=O)O)ccc21 [eFAP-7, 1-(6-((3-((4-((2-((S)-2-cyano-4,4-difluoropyrrolidin-1-yl)-2-oxoethyl)carbamoyl)quinolin-8-yl)oxy)propyl)amino)-6-oxohexyl)-3,3-dimethyl-5-sulfo-2-((1E,3E)-5-((E)-1,3,3-trimethyl-5-sulfoindolin-2-ylidene)penta-1,3-dien-1-yl)-3H-indol-1-ium]
